In patent publication US20240374626A1, “METHODS OF ENHANCING MILK PRODUCTION IN LACTATING MAMMALIAN SUBJECTS” (priority 2023, published 2024):

Columns and labels:
[1] = system: γH2AX; experiment: Contralateral intraductal injection: γH2AX IHC in CK8+ luminal cells of MG; type: in vivo, mouse; conditions: doxorubicin IDI (1.5 μg per gland) at PD12.5 vs contralateral DMSO vehicle, 24 h post-injection (PD13.5)
Method: (§1) Nulliparous analysis was performed using adult (10-12-week-old) female mice. For timed pregnancies and lactation analysis, CD-1 pregnant adult females were obtained from Charles Rivers. Embryos were examined at the time of mammary gland harvesting to confirm pregnancy state. […] Plugged mice were considered to be PD0.5 on the day of the observed plug. All females used in this study were age matched.
Mice were anesthetized with isoflurane (VetOne, 501017) Prior to intraductal injections, hair was removed from around the nipples using Nair hair remover. Injections into the duct of the nipple were performed with 33 G needles (Hamilton, 7803-05) and a volume of 40 μl per gland. Right inguinal, abdominal and thoracic glands were injected with doxorubicin (1.5 μg per gland, Cayman Chemical, 15007), nucleosides (40 μl per gland, Millipore-Sigma, ES-008-D) or Mk-1775 (50 μg per gland, Cayman Chemical, 21266), and left glands were injected with PBS or DMSO (Thermo Scientific, BP231) diluted in PBS.
Mammary gland tissue was fixed in 10% neutral buffered formalin (EMD Millipore, MR0458682) at 4° C. overnight. Fixation was quenched using 0.2% glycine (Fisher Scientific, BP381) in PBS, for 1 h at room temperature. […] Integrated density of nuclear γH2AX and pATR was quantified using ImageJ.

[2] = system: Wee1; experiment: Contralateral intraductal injection: Wee1 expression in whole MG tissue by RT-qPCR; type: in vivo, mouse; conditions: IDI of doxorubicin into pregnant MG vs contralateral DMSO
Method: as §1
Mice were anesthetized with isoflurane (VetOne, 501017) Prior to intraductal injections, hair was removed from around the nipples using Nair hair remover. Injections into the duct of the nipple were performed with 33 G needles (Hamilton, 7803-05) and a volume of 40 μl per gland. […]
For RNA isolation from FACS purified populations, mammary gland cell suspensions were blocked using Mouse BD Fc Block™ (BD Biosciences) for 10 min. […] Total RNA quality was analyzed by agarose gel electrophoresis and quantified using an ND-1000 spectrophotometer (NanoDrop). cDNA was prepared from 500-1000 ng of total RNA using iScript cDNA synthesis kit (Bio-Rad, 1708841). Quantitative RT-qPCR was performed in triplicates using SsoAdvanced Universal SYBR Green Supermix, (Bio-Rad, 1725272). […]

SMILES: COc1cccc2c1C(=O)c1c(O)c3c(c(O)c1C2=O)C[C@@](O)(C(=O)CO)C[C@@H]3O[C@H]1C[C@H](N)[C@H](O)[C@H](C)O1 [doxorubicin]
- γH2AX in CK8+ luminal cells [1]: Increased
- Wee1 expression in whole MG tissue, RT-qPCR [2]: upregulated
